Data taken from patent publication US8563729B2, “Thienopyridone derivatives as AMP-activated protein kinase (AMPK) activators” (Merck Patent GmbH, priority 2008, dated 2013).

How the values were obtained:
[1] = molecular target: T1, AMPK protein (recombinant α1β1γ2) (Homo sapiens, UniProt Q13131+Q9Y478); assay: AMPK enzymatic activity (Delfia, AMARA peptide substrate); type: biochemical; details: compound 30 μM vs AMP 30 μM; 125 μM ATP; ratio 90% or higher = direct activator
T1 construct: made in house; host or cells: E. coli
Procedure, shortened: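 Human α1β1γ2 AMPK expressed in E. coli, reactivated in vitro by LKB1, assayed in 50 mM Hepes pH 7.4 with 125 μM ATP and AMARA peptide for 30 min at room temperature; phosphorylation detected by Delfia anti-phosphoserine antibody. Activity = % of basal control at 30 μM compound relative to that of 30 μM AMP.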

H-2 Kb cells = assay: Glucose uptake in H-2 Kb cells (in vitro cellular test); type: cell-based, mouse; details: H-2 Kb cells differentiated in muscle, 4 hours incubation, 2-deoxy-D-[1,2 3H] glucose uptake 10 min
Protocol: Glucose Uptake in H-2 Kb Cells (In Vitro Cellular Test)
The following cellular test allows the determination of the effect of AMPK activators such as compounds of formula (I) onto glucose uptake in a muscle cellular model.
H-1-2 Kb cells derived from heterozygous H-2 Kb tsA58 transgenic mouse were grown in 24-well in plates coated with matrigel and were cultured at 33° C. for 4 days under permissive conditions, as described previously by Fryer et al. (Diabetes 49 (12): 1978, 2000).
For differentiation in muscle, cells were switched to non-permissive culture conditions (37° C. in the absence of interferon-γ). After 3 days, cells were incubated for 4 hours in DMEM 1 g/l glucose culture medium containing different concentrations of the tested molecules. Then glucose uptake was measured by incubating the cells for 10 min with radiolabelled 2-deoxy-D-[1,2 ^3H] glucose. Glucose uptake was terminated by rapidly washing the plates 2 times with ice-cold NaCl 0.9%. The cells were then solubilized in 0.1N NaOH for 30 min. Radioactivity was determined by liquid scintillation counting.
N°: Number of the molecule
Activity (table III): Concentration of compound (I) for a glucose uptake equal or higher to glucose uptake induced by insulin (170 nM)
^++ or **concentration of compound (I) ≦10 micro Molar
^+ or *concentration of compound (I) >10 micro Molar

T1 sequence (Q13131 whole entry): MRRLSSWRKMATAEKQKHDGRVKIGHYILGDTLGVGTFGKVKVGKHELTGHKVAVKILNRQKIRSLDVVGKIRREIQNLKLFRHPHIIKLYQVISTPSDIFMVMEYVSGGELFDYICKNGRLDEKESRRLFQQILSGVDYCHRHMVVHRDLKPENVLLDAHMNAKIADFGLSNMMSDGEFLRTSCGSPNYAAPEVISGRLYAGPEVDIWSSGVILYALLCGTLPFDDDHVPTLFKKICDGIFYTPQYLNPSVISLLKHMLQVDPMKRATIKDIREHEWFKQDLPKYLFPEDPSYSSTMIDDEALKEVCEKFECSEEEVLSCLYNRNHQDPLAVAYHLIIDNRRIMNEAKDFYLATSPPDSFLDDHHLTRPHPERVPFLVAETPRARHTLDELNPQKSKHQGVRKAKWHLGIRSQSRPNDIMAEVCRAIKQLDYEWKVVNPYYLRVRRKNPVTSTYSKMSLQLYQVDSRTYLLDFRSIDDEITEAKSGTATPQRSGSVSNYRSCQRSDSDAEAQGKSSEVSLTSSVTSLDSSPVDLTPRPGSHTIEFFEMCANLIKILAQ
T1 sequence (Q9Y478 whole entry): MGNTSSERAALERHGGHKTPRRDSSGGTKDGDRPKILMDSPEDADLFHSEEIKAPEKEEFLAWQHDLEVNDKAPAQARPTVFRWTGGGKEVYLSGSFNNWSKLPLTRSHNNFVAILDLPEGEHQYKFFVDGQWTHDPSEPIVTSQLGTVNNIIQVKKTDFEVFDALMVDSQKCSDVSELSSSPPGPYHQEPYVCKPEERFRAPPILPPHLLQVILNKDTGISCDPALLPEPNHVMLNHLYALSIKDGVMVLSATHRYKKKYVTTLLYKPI
T1 sequence (Q9UGJ0 whole entry partner): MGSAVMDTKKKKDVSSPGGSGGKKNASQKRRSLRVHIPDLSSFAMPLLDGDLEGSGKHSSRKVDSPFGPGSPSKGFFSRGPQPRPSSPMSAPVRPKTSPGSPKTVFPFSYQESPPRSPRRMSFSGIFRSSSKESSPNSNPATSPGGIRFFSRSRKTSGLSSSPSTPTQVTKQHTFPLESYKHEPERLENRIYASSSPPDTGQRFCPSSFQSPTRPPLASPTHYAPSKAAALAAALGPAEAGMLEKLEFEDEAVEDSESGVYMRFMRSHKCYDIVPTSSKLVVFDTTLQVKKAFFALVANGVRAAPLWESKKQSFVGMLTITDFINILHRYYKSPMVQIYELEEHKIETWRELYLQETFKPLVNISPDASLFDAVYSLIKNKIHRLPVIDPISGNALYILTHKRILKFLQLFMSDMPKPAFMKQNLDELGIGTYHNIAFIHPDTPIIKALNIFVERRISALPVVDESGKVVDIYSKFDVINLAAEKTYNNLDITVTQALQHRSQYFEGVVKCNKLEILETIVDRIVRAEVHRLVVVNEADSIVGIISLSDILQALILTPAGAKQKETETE

Structure (SMILES) | activity: Ratio between the % of control (basal activity) of compound of formula (I) at 30 μM and the % of control (basal activity) of AMP at 30 μM [1] | Activity (table III): Concentration of compound (I) for a glucose uptake equal or higher to glucose uptake induced by insulin (170 nM) (H-2 Kb cells)
O=c1[nH]c2scc(-c3ccc(C(F)(F)F)cc3)c2c(O)c1-c1ccccc1 [Compound 36] | 121% | * (^+ or *concentration of compound (I) >10 micro Molar)
O=c1[nH]c2sc(Cl)c(-c3ccc(F)cc3O)c2c(O)c1-c1ccccc1 [Compound 111] | 136% | * (^+ or *concentration of compound (I) >10 micro Molar)
Cc1ccc(-c2c(Cl)sc3[nH]c(=O)c(-c4ccccc4)c(O)c23)c(O)c1 [Compound 104] | 236% | * (^+ or *concentration of compound (I) >10 micro Molar)
O=c1[nH]c2scc(-c3ccc(Cl)cc3)c2c(O)c1-c1ccccc1 [Compound 26] | 128% | * (^+ or *concentration of compound (I) >10 micro Molar)
O=c1[nH]c2scc(-c3ccc4ccccc4c3)c2c(O)c1-c1ccccc1 [Compound 33] | 201% | * (^+ or *concentration of compound (I) >10 micro Molar)
Cc1sc2[nH]c(=O)c(-c3ccc(O)cc3)c(O)c2c1-c1ccccc1 [Compound 14] | 116% | * (^+ or *concentration of compound (I) >10 micro Molar)

Continued, in another order:

activity: Ratio between the % of control (basal activity) of compound of formula (I) at 30 μM and the % of control (basal activity) of AMP at 30 μM [1] | Structure (SMILES) | Activity (table III): Concentration of compound (I) for a glucose uptake equal or higher to glucose uptake induced by insulin (170 nM) (H-2 Kb cells)
349% | O=c1[nH]c2sc(Cl)c(-c3ccc(F)cc3O)c2c(O)c1-c1ccc(F)cc1 [Compound 213] | + (^+ or *concentration of compound (I) >10 micro Molar)
156% | Cc1ccc(-c2c(Cl)sc3[nH]c(=O)c(-c4cccnc4)c(O)c23)c(O)c1 [Compound 195] | + (^+ or *concentration of compound (I) >10 micro Molar)
284% | O=c1[nH]c2sc(Cl)c(-c3ccc4ccccc4c3O)c2c(O)c1-c1ccc(F)cc1 [Compound 185] | ++ (^++ or **concentration of compound (I) ≦10 micro Molar)
114% | O=c1[nH]c2sc(Cl)c(-c3ccc(O)cc3)c2c(O)c1-c1ccccc1 [Compound 138] | ** (^++ or **concentration of compound (I) ≦10 micro Molar)
183% | COc1ccc(-c2c(O)c3c(-c4ccc(F)cc4O)c(Cl)sc3[nH]c2=O)cc1 [Compound 212] | + (^+ or *concentration of compound (I) >10 micro Molar)
121% | O=c1[nH]c2sc(Cl)c(-c3ccccc3)c2c(O)c1-c1cccc(O)c1 [Compound 148] | ** (^++ or **concentration of compound (I) ≦10 micro Molar)
234% | COc1ccc(-c2c(O)c3c(-c4ccccc4)c(Cl)sc3[nH]c2=O)cc1OC [Compound 177] | ++ (^++ or **concentration of compound (I) ≦10 micro Molar)
101% | O=c1[nH]c2sc(Cl)c(-c3ccccc3F)c2c(O)c1-c1ccccc1 [Compound 119] | * (^+ or *concentration of compound (I) >10 micro Molar)
